According to patent US11246931B2, “Active pharmaceutical ingredient carrier and production method of the same” (Tokuyama Corporation, priority 2017, dated 2022):

Experiment: Elution test, paddle method of the Japanese Pharmacopoeia (elution rate by HPLC)
Assay type: physicochemical
Conditions: 37±0.5° C., 75 rpm; for Elution rate (%) 10 min: 10 min after addition; for Elution rate (%) 60 min: 60 min after addition; for Elution rate (%) 120 min: 120 min after addition
Description: The elution test was performed according to the paddle method in the Japanese Pharmacopoeia the 17th edition. Specifically, the test solution was set to 900 mL of the elution test solution No. 1 of the Japanese Pharmacopoeia, the temperature was set to 37±0.5° C., the rotation speed was set to 75 rpm, the sample to be tested was loaded, and then about 1 mL was sampled at regular intervals, filtered through a syringe filter, and then subjected to HPLC analysis to determine the peak area of the active pharmaceutical ingredient. The obtained area was compared to the peak area of the active pharmaceutical ingredient at the elution rate of 100% to calculate the elution rate (%).
The elution rate is a value obtained by performing HPLC analysis with 200 mg of an IBP crystal all dissolved in 900 mL of the test solution, taking the obtained area as the elution rate of 100%, adding the active pharmaceutical ingredient or the active pharmaceutical ingredient carrier to the eluate, then performing sampling overtime, performing filtering and HPLC analysis to calculate the area, and comparing the area to the value of the elution rate of 100%.
An active pharmaceutical ingredient carrier (corresponding to 200 mg of an active pharmaceutical ingredient) (0.66 g) was weighed, and subjected to the elution test according to the paddle method in the Japanese Pharmacopoeia elution test method using the elution test solution No. 1 (pH 1.2). The temperature of the test solution was 37±0.5° C., and the rotation speed was 75 rpm. Sampling was performed at 5 minutes, 10 minutes, 15 minutes, 30 minutes, and then once every 15 minutes until 120 minutes after addition of the active pharmaceutical ingredient carrier, the obtained sample was immediately filtered using a syringe filter, and the elution rate (%) was calculated as described above from the peak area of the active pharmaceutical ingredient by high performance liquid chromatography (HPLC) with a UV detector.
The elution test of an IBP crystal was performed in the same manner as described above except that an ibuprofen active pharmaceutical ingredient (IBP crystals) was used instead of the active pharmaceutical ingredient carrier.
In the same manner as in the elution test, the elution test of the obtained active pharmaceutical ingredient carrier or the ezetimibe active ingredient (an ETB crystal) was performed. This test was performed using the elution test solution No. 1 (pH 1.2) same as that described above and the elution test solution No. 2 (pH 6.8).
In the same manner as described above, the elution test of the obtained active pharmaceutical ingredient carrier or the celecoxib active ingredient (a CXB crystal) was performed using the elution test solution No. 1 (pH 1.2) or the elution test solution No. 2 (pH 6.8).
In the same manner as described above, the elution test of the obtained active pharmaceutical ingredient carrier or the azilsartan active ingredient (an AZL crystal) was performed using the elution test solution No. 1 (pH 1.2).

[1] = elution test solution No. 1 (pH 1.2), 900 mL
[2] = elution test solution No. 2 (pH 6.8)

SMILES | Elution rate (%) 10 min [1] [%] | Elution rate (%) 60 min [1] [%] | Elution rate (%) 120 min [1] [%] | Elution rate (%) 10 min [2] [%] | Elution rate (%) 60 min [2] [%] | Elution rate (%) 120 min [2] [%]
O=C1[C@H](CC[C@H](O)c2ccc(F)cc2)[C@@H](c2ccc(O)cc2)N1c1ccc(F)cc1 [ETB crystal, ezetimibe] | 6.1 | 8.4 | 8.4 | 6.6 | 8.3 | 8.2
CCOc1nc2cccc(C(=O)O)c2n1Cc1ccc(-c2ccccc2-c2nc(=O)o[nH]2)cc1 [AZL crystal, azilsartan] | 0.58 | 4.7 | 7.4 |  |  | 
CC(C)Cc1ccc(C(C)C(=O)O)cc1 (stereo not drawn) [IBP crystal, ibuprofen] | 1.1 | 6.0 | 10.1 |  |  | 
